Among the data in ChEMBL document CHEMBL1126911, “Synthesis and binding properties of 2-amino-5-phosphono-3-pentenoic acid photoaffinity ligands as probes for the glutamate recognition site of the NMDA receptor” (J Med Chem, 1993) are IC50 values, retold here.

For test [1], the target named is Glutamate NMDA receptor. The experiment in a line: Tested for in vitro binding affinity against NMDA receptor by using [3H]-CGP- 39653 as radioligand in rat forebrain membranes. The class given is cell membranes.
The target of test [2] is Glutamate NMDA receptor. The experiment in a line: Tested for in vitro binding affinity against NMDA receptor by using [3H]-CGP- 39653 as radioligand in rat forebrain membranes. The class given is cell membranes, Membrane.

With `NCCCCCC/C(=C\C(N)C(=O)O)CP(=O)(O)O` (stereo not given), on Glutamate NMDA receptor [1], the half-inhibitory concentration (IC50) (commonly the midpoint of a concentration-inhibition curve) came to 42 nM. Regarding `NC(/C=C(\CCCCCCNC(=O)c1ccccc1)CP(=O)(O)O)C(=O)O` (stereo not given), the IC50 on Glutamate NMDA receptor [2] stood at 106 nM. In turn, `[N-]=[N+]=Nc1ccc(C(=O)NCCCCCC/C(=C\C(N)C(=O)O)CP(=O)(O)O)cc1` (stereo not given) registered a concentration for half-maximal inhibition (IC50) on Glutamate NMDA receptor [1] of 38 nM.

Consider `[N-]=[N+]=Nc1ccc(C(=O)NCCCCCC/C(=C\C(N)C(=O)O)CP(=O)(O)O)c(O)c1` (stereo not given), for which the IC50 at Glutamate NMDA receptor [1] is 36 nM. As to `[N-]=[N+]=Nc1ccc(C(=O)NCCCCCC/C(=C\C(N)C(=O)O)CP(=O)(O)O)c(O)c1I` (stereo not given), on Glutamate NMDA receptor [1], the IC50 stood at 34 nM.
